Results taken from ChEMBL document CHEMBL4425176, “1,2,3-Triazoles as inhibitors of indoleamine 2,3-dioxygenase 2 (IDO2)” (Bioorg Med Chem Lett, 2016).

Experiments:
Format in all cases: cell-based
[1] = target: T1, Indoleamine 2,3-dioxygenase 2 (Mus musculus) (UniProt Q8R0V5); test: Inhibition of mouse IDO2 transfected in HEK293T cells assessed as kynurenine formation using L-Trp as substrate at 200 uM after 24 hrs
T1 sequence (whole entry): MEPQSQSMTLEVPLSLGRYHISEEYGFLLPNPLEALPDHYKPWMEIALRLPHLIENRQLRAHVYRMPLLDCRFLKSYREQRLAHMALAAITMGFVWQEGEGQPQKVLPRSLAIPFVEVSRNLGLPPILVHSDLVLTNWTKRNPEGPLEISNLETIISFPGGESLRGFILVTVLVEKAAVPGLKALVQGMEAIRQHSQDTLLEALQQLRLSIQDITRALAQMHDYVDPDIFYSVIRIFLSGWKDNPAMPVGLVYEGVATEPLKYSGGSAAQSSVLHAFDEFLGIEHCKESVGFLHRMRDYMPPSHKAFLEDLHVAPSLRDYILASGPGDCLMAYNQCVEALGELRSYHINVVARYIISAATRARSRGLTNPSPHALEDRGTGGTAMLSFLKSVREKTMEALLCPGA

HEK-293T = test: Cytotoxicity against HEK293T cells transfected with human IDO1 or mouse IDO2 assessed as apoptotic cells at 200 uM after 7 hrs or 24 hrs by DAPI staining based cytometric analysis relative to control
[2] = target: T2, Indoleamine 2,3-dioxygenase 1 (Homo sapiens, UniProt P14902); test: Inhibition of human IDO1 transfected in HEK293T cells assessed as kynurenine formation using L-Trp as substrate at 200 uM after 7 hrs
Target sequence in this assay (P14902 whole entry, looked up): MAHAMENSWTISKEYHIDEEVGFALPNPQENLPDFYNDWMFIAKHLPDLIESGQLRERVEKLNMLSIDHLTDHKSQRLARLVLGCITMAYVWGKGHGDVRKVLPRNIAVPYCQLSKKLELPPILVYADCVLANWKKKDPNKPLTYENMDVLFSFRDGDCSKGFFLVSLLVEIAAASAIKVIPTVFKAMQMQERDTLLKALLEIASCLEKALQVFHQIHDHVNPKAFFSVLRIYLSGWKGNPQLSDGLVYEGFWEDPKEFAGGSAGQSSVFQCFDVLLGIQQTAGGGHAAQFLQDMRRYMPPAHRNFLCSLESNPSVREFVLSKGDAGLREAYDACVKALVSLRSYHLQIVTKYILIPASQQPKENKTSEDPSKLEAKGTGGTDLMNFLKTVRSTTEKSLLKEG

[3] = Selectivity ratio of IC50 for human IDO1 to IC50 for mouse IDO2 transfected in HEK293T cells
[4] = target: T3, Indoleamine 2,3-dioxygenase 2 (Mus musculus, UniProt Q8R0V5); test: Inhibition of mouse IDO2 transfected in HEK293T cells assessed as kynurenine formation using L-Trp as substrate after 24 hrs
T3 sequence (Q8R0V5 whole entry): T1 sequence (whole entry)

[5] = target: T2, Indoleamine 2,3-dioxygenase 1; test: Inhibition of human IDO1 transfected in HEK293T cells assessed as kynurenine formation using L-Trp as substrate after 7 hrs
Target sequence in this assay (P14902 whole entry): as the sequence (P14902 whole entry, looked up) above

Row | SMILES | inhibition [1] | Activity (HEK-293T) | inhibition [2] | Ratio IC50 [3] | IC50 [4] | IC50 [5]
1 | Clc1cccc(-c2c[nH]nn2)c1 | 2% | 0% | 95% |  |  | 
2 | Clc1ccc(-c2c[nH]nn2)cc1 | 27% |  | 9% |  |  | 
3 | OC(Cc1ccccc1-c1c[nH]nn1)c1ccccc1 (configuration not stated) | 47% | 0% | 28% |  |  | 
4 | Clc1cccc(-c2c[nH]nn2)c1/C=C/c1ccccc1 | 97% | 57.9% | 32% |  |  | 
5 | c1ccc(Cc2ccccc2-c2c[nH]nn2)cc1 | 80% | 0% | 84% | 1.5 | 70 µM | 105 µM
6 | Oc1ccc(Cl)cc1-c1c[nH]nn1 | 43% | 0% | 98% |  | 120 µM | 
7 | c1ccc(-c2cnn[nH]2)cc1 | 1% | 5.3% | 93% |  |  | 
8 | Clc1cccc(-c2c[nH]nn2)c1CCC1CCCC1 | 90% | 21.5% | 71% |  |  | 
9 | Clc1ccccc1-c1c[nH]nn1 |  | 0.2% |  |  |  | 
10 | c1ccc(CCc2ccccc2-c2c[nH]nn2)cc1 | 90% | 3.7% | 58% | 2 | 51 µM | 100 µM
11 | Clc1cccc(-c2c[nH]nn2)c1/C=C/C1CCCCC1 | 65% | 5.4% | 56% | 1 | 110 µM | 110 µM
12 | c1ccc(-c2c[nH]nn2)c(CCC2CCCCC2)c1 | 95% | 72.3% | 77% |  |  | 
13 | c1ccc(-c2c[nH]nn2)c(CCC2CCCC2)c1 | 89% | 35.1% | 74% |  |  | 
14 | Clc1cccc(-c2c[nH]nn2)c1CCc1ccccc1 | 94% | 70.8% | 76% |  |  | 
15 | Clc1ccccc1-c1cnn[nH]1 | 4% |  | 83% |  |  | 
16 | Clc1ccc(CCc2ccccc2)c(-c2c[nH]nn2)c1 | 97% | 51.6% | 70% |  |  | 
17 | Oc1ccccc1-c1c[nH]nn1 | 14% | 0.2% | 96% |  |  | 
